In EP0942906B1, “COMPOUNDS USEFUL FOR INHIBITION OF FARNESYL PROTEIN TRANSFERASE” (SCHERING CORPORATION, priority 1996, dated 1998):
Like-named read-outs stand apart in the source and are kept apart here.

Assays:
Settings in all cases: range stated for the listed group of compounds
[1] = target: farnesyl protein transferase (Homo sapiens, UniProt P49354+P49356); experiment: FPT IC50, inhibition of farnesyl protein transferase, in vitro enzyme assay (procedure of WO 95/10516); type: biochemical
Description: (§1) FPT IC50 (inhibition of farnesyl protein transferase, in vitro enzyme assay) and COS Cell IC50 (Cell-Based Assay) were determined following the assay procedures described in WO 95/10516, published April 20, 1995. GGPT IC50 (inhibition of geranylgeranyl protein transferase, in vitro enzyme assay), Cell Mat Assay, and anti-tumor activity (in vivo anti-tumor studies) could be determined by the assay procedures described in WO 95/10516.

COS Cell = COS Cell IC50 (Cell-Based Assay, procedure of WO 95/10516)
Description: as §1

Human tumor cells = experiment: Soft Agar Assay (anchorage-independent growth, colony count after MTT staining); type: cell-based
Description: Anchorage-independent growth is a characteristic of tumorigenic cell lines. Human tumor cells are suspended in growth medium containing 0.3% agarose and an indicated concentration of a farnesyl transferase inhibitor. The solution is overlayed onto growth medium solidified with 0.6% agarose containing the same concentration of farnesyl transferase inhibitor as the top layer. After the top layer is solidified, plates are incubated for 10-16 days at 37°C under 5% CO2 to allow colony outgrowth. After incubation, the colonies are stained by overlaying the agar with a solution of MTT (3-[4,5-dimethylthiazol-2-yl]-2.5-diphenyltetrazolium bromide, Thiazolyl blue) (1 mg/mL in PBS). Colonies can be counted and the IC50's can be determined.

[2] = H-ras, read-out: FPT IC50 (H-ras)
[3] = k-ras, read-out: FPT IC50 (k-ras)
[4] = ras form not stated, read-out: FPT IC50

Chain of farnesyl protein transferase (P49356 whole entry, one chain of several): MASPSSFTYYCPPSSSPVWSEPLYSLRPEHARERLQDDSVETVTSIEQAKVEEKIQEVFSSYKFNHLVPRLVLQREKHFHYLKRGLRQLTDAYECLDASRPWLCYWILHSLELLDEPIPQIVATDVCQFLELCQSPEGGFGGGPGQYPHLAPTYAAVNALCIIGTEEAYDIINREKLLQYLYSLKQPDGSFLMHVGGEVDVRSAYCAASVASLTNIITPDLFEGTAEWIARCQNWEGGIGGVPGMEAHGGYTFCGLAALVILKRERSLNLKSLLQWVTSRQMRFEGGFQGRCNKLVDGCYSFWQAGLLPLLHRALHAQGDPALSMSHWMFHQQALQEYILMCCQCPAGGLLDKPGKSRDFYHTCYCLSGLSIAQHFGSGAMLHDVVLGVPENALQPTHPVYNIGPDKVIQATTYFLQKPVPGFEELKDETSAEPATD

`CN(C)CC(=O)N1CCC(CC(=O)N2CCC(C3c4ncc(Br)cc4CCc4cc(Cl)cc(Br)c43)CC2)CC1` (single isomer, unassigned; (+)) [Compound 12.1] showed an IC50 [1, 2] of 2 to 31.7 nM, an IC50 [1, 3] of 14.5 to 71.2 nM and an IC50 (COS Cell; read-out: Cos Cell IC50) of 10 to 700 nM. For the same molecule, the IC50 (Human tumor cells) was ≥ 19.5 nM.
`CN(C)CCC(=O)N1CCC(CC(=O)N2CCC(C3c4ncc(Br)cc4CCc4cc(Cl)cc(Br)c43)CC2)CC1` (single isomer, unassigned; (+)) [Compound 12.3] gave an IC50 [1, 2] of 2 to 31.7 nM, an IC50 [1, 3] of 14.5 to 71.2 nM and an IC50 (COS Cell; read-out: Cos Cell IC50) of 10 to 700 nM. The IC50 (Human tumor cells) was ≥ 19.5 nM.
Work on `O=C(CC1CCN(C(=O)CN2CCS(=O)(=O)CC2)CC1)N1CCC(C2c3ncc(Br)cc3CCc3cc(Cl)cc(Br)c32)CC1` (single isomer, unassigned; (+)) [Compound 14.1] yielded an IC50 [1, 2] of 2 to 31.7 nM and an IC50 (COS Cell; read-out: Cos Cell IC50) of 10 to 700 nM.
For `O=C(CCN1CCCCC1)N1CCC(CC(=O)N2CCC(C3c4ncc(Br)cc4CCc4cc(Cl)cc(Br)c43)CC2)CC1` (single isomer, unassigned; (+)) [Compound 14.2], the IC50 [1, 2] was 2 to 31.7 nM and the IC50 (COS Cell; read-out: Cos Cell IC50) was 10 to 700 nM.
For `CC(C)(C)OC(=O)NCC(=O)N1CCC(CC(=O)N2CCC([C@H]3c4ncc(Br)cc4CCc4cc(Cl)cc(Br)c43)CC2)CC1` [Compound 2.0], the IC50 [1, 2] was 2 to 31.7 nM and the IC50 [1, 3] was 14.5 to 71.2 nM.
In the case of `C[C@H](NC(=O)OC(C)(C)C)C(=O)N1CCC(CC(=O)N2CCC([C@H]3c4ncc(Br)cc4CCc4cc(Cl)cc(Br)c43)CC2)CC1` [Compound 3.0], the IC50 [1, 2] is reported as 2 to 31.7 nM and the IC50 [1, 3] is reported as 14.5 to 71.2 nM.
Work on `C[C@@H](NC(=O)OC(C)(C)C)C(=O)N1CCC(CC(=O)N2CCC([C@H]3c4ncc(Br)cc4CCc4cc(Cl)cc(Br)c43)CC2)CC1` [Compound 4.0] yielded an IC50 [1, 2] of 2 to 31.7 nM and an IC50 [1, 3] of 14.5 to 71.2 nM.
Work on `CC(C)(C)OC(=O)N[C@@H](Cc1ccccc1)C(=O)N1CCC(CC(=O)N2CCC([C@H]3c4ncc(Br)cc4CCc4cc(Cl)cc(Br)c43)CC2)CC1` [Compound 5.0] yielded an IC50 [1, 2] of 2 to 31.7 nM.
With `O=C(CC1CCN(C(=O)CN2CCS(=O)(=O)CC2)CC1)N1CCC([C@H]2c3ncc(Br)cc3CCc3cc(Cl)cc(Br)c32)CC1` [Compound 6.0-B] the IC50 [1, 3] was 14.5 to 71.2 nM, the IC50 [1, 4] was 0.7 to 18 nM and the IC50 (COS Cell; read-out: Cos Cell) was ≥ 9 nM. For the same molecule, the IC50 (Human tumor cells) was ≥ 19.5 nM.
With `CC(C)(C)OC(=O)N[C@@H](Cc1c[nH]cn1)C(=O)N1CCC(CC(=O)N2CCC([C@H]3c4ncc(Br)cc4CCc4cc(Cl)cc(Br)c43)CC2)CC1` [Compound 6.0] the IC50 [1, 2] was 2 to 31.7 nM, the IC50 [1, 3] was 14.5 to 71.2 nM and the IC50 (COS Cell; read-out: Cos Cell) was ≥ 9 nM. For the same molecule, the IC50 (COS Cell; read-out: Cos Cell IC50) was 10 to 700 nM.
`O=C(CCN1CCCCC1)N1CCC(CC(=O)N2CCC([C@H]3c4ncc(Br)cc4CCc4cc(Cl)cc(Br)c43)CC2)CC1` [Compound 7.0-B] was tested, and the IC50 [1, 3] was 14.5 to 71.2 nM, the IC50 [1, 4] was 0.7 to 18 nM and the IC50 (COS Cell; read-out: Cos Cell) was ≥ 9 nM.
Molecule `CC(C)(C)OC(=O)N1CCC[C@H]1C(=O)N1CCC(CC(=O)N2CCC([C@H]3c4ncc(Br)cc4CCc4cc(Cl)cc(Br)c43)CC2)CC1` [Compound 7.0] has an IC50 [1, 2] of 2 to 31.7 nM, an IC50 [1, 3] of 14.5 to 71.2 nM and an IC50 (COS Cell; read-out: Cos Cell IC50) of 10 to 700 nM.
With `CCOC(=O)CC(=O)N1CCC(CC(=O)N2CCC([C@H]3c4ncc(Br)cc4CCc4cc(Cl)cc(Br)c43)CC2)CC1` [Compound 8.0-B] the IC50 [1, 4] was 0.7 to 18 nM.
In the case of `N[C@@H](Cc1ccccc1)C(=O)N1CCC(CC(=O)N2CCC([C@H]3c4ncc(Br)cc4CCc4cc(Cl)cc(Br)c43)CC2)CC1` [Compound 8.0], the IC50 [1, 2] is reported as 2 to 31.7 nM, the IC50 [1, 3] is reported as 14.5 to 71.2 nM and the IC50 (COS Cell; read-out: Cos Cell IC50) is reported as 10 to 700 nM.
For `CC(C)=NOCC(=O)N1CCC(CC(=O)N2CCC([C@H]3c4ncc(Br)cc4CCc4cc(Cl)cc(Br)c43)CC2)CC1` [Compound 9.0-B], the IC50 [1, 3] was 14.5 to 71.2 nM, the IC50 [1, 4] was 0.7 to 18 nM and the IC50 (COS Cell; read-out: Cos Cell) was ≥ 9 nM. For the same molecule, the IC50 (Human tumor cells) was ≥ 19.5 nM.
`N[C@@H](Cc1c[nH]cn1)C(=O)N1CCC(CC(=O)N2CCC([C@H]3c4ncc(Br)cc4CCc4cc(Cl)cc(Br)c43)CC2)CC1` [Compound 9.0] was tested, and the IC50 [1, 2] was 2 to 31.7 nM and the IC50 [1, 3] was 14.5 to 71.2 nM.
In the case of `Cc1nccn1CC(=O)N1CCC(CC(=O)N2CCC([C@H]3c4ncc(Br)cc4CCc4cc(Cl)cc(Br)c43)CC2)CC1` [Compound 10.0-B], the IC50 [1, 3] is reported as 14.5 to 71.2 nM, the IC50 [1, 4] is reported as 0.7 to 18 nM and the IC50 (COS Cell; read-out: Cos Cell) is reported as ≥ 9 nM. For the same molecule, the IC50 (Human tumor cells) was ≥ 19.5 nM.
For `O=C(CC1CCN(C(=O)[C@@H]2CCCN2)CC1)N1CCC([C@H]2c3ncc(Br)cc3CCc3cc(Cl)cc(Br)c32)CC1` [Compound 10.0], the IC50 [1, 2] was 2 to 31.7 nM, the IC50 [1, 3] was 14.5 to 71.2 nM and the IC50 (COS Cell; read-out: Cos Cell IC50) was 10 to 700 nM. For the same molecule, the IC50 (Human tumor cells) was ≥ 19.5 nM.
For `CS(=O)(=O)NCC(=O)N1CCC(CC(=O)N2CCC([C@H]3c4ncc(Br)cc4CCc4cc(Cl)cc(Br)c43)CC2)CC1` [Compound 11.0], the IC50 [1, 2] was 2 to 31.7 nM and the IC50 (COS Cell; read-out: Cos Cell IC50) was 10 to 700 nM.
In the case of `O=C(CC1CCN(C(=O)Cn2cnc3ccccc32)CC1)N1CCC([C@H]2c3ncc(Br)cc3CCc3cc(Cl)cc(Br)c32)CC1` [Compound 12.0-B], the IC50 [1, 3] is reported as 14.5 to 71.2 nM, the IC50 [1, 4] is reported as 0.7 to 18 nM and the IC50 (COS Cell; read-out: Cos Cell) is reported as ≥ 9 nM. For the same molecule, the IC50 (Human tumor cells) was ≥ 19.5 nM.
Molecule `O=C(NCC(=O)N1CCC(CC(=O)N2CCC([C@H]3c4ncc(Br)cc4CCc4cc(Cl)cc(Br)c43)CC2)CC1)c1ccccc1` [Compound 12.0] has an IC50 [1, 2] of 2 to 31.7 nM and an IC50 (COS Cell; read-out: Cos Cell IC50) of 10 to 700 nM.
Work on `CN(C)CCCC(=O)N1CCC(CC(=O)N2CCC([C@H]3c4ncc(Br)cc4CCc4cc(Cl)cc(Br)c43)CC2)CC1` [Compound 12.2] yielded an IC50 [1, 2] of 2 to 31.7 nM.
`O=C(CC1CCN(C(=O)Cn2cnc3cccnc32)CC1)N1CCC([C@H]2c3ncc(Br)cc3CCc3cc(Cl)cc(Br)c32)CC1` [Compound 13.0-B] was tested, and the IC50 [1, 3] was 14.5 to 71.2 nM, the IC50 [1, 4] was 0.7 to 18 nM and the IC50 (COS Cell; read-out: Cos Cell) was ≥ 9 nM. The IC50 (Human tumor cells) was ≥ 19.5 nM.
In the case of `O=C(CC1CCN(C(=O)CN2CCOCC2)CC1)N1CCC([C@H]2c3ncc(Br)cc3CCc3cc(Cl)cc(Br)c32)CC1` [Compound 13.0], the IC50 [1, 2] is reported as 2 to 31.7 nM and the IC50 (COS Cell; read-out: Cos Cell IC50) is reported as 10 to 700 nM.
For `O=C(O)CC(=O)N1CCC(CC(=O)N2CCC([C@H]3c4ncc(Br)cc4CCc4cc(Cl)cc(Br)c43)CC2)CC1` [Compound 14.0-B], the IC50 [1, 4] was 0.7 to 18 nM, the IC50 (COS Cell; read-out: Cos Cell) was ≥ 9 nM and the IC50 (Human tumor cells) was ≥ 19.5 nM.
In the case of `COC(=O)CCCC(=O)N1CCC(CC(=O)N2CCC(C3c4ncc(Br)cc4CCc4cc(Cl)cc(Br)c43)CC2)CC1` (centres unmarked) [Compound 15.1], the IC50 [1, 2] is reported as 2 to 31.7 nM and the IC50 (COS Cell; read-out: Cos Cell IC50) is reported as 10 to 700 nM.
Work on `CCOC(=O)CC(=O)N1CCC(CC(=O)N2CCC(C3c4ncc(Br)cc4CCc4cc(Cl)cc(Br)c43)CC2)CC1` (centres unmarked) [Compound 15.3] yielded an IC50 [1, 2] of 2 to 31.7 nM and an IC50 (COS Cell; read-out: Cos Cell IC50) of 10 to 700 nM.
For `NCC(=O)N1CCC(CC(=O)N2CCC([C@H]3c4ncc(Br)cc4CCc4cc(Cl)cc(Br)c43)CC2)CC1` [Compound 16.0], the IC50 (COS Cell; read-out: Cos Cell) was ≥ 9 nM and the IC50 (Human tumor cells) was ≥ 19.5 nM.
Molecule `O=C(CC1CCN(C(=O)Cn2cnc(-c3ccccc3)c2)CC1)N1CCC([C@H]2c3ncc(Br)cc3CCc3cc(Cl)cc(Br)c32)CC1` [Compound 20.0-B] has an IC50 [1, 4] of 0.7 to 18 nM.
With `COC(NC(=O)CC(=O)N1CCC(CC(=O)N2CCC([C@H]3c4ncc(Br)cc4CCc4cc(Cl)cc(Br)c43)CC2)CC1)C(C)C` (some centres unmarked) [Compound 51.0-B] the IC50 [1, 4] was 0.7 to 18 nM and the IC50 (COS Cell; read-out: Cos Cell) was ≥ 9 nM.
`CCOC(CC(=O)N1CCC(CC(=O)N2CCC([C@H]3c4ncc(Br)cc4CCc4cc(Cl)cc(Br)c43)CC2)CC1)OCC` [Compound 76.0-B] gave an IC50 [1, 4] of 0.7 to 18 nM.
`CC(C)(C)OC(=O)NCCC(=O)N1CCC(CC(=O)N2CCC([C@H]3c4ncc(Br)cc4CCc4cc(Cl)cc(Br)c43)CC2)CC1` [Compound 86.0-B] gave an IC50 [1, 4] of 0.7 to 18 nM.
With `NCCCC(=O)N1CCC(CC(=O)N2CCC([C@H]3c4ncc(Br)cc4CCc4cc(Cl)cc(Br)c43)CC2)CC1` [Compound 90.0-B] the IC50 [1, 4] was 0.7 to 18 nM.
`O=C(CC1CCN(C(=O)CC2CCCCO2)CC1)N1CCC([C@H]2c3ncc(Br)cc3CCc3cc(Cl)cc(Br)c32)CC1` (some centres unmarked) [Compound 114.3-B] was tested, and the IC50 [1, 4] was 0.7 to 18 nM and the IC50 (COS Cell; read-out: Cos Cell) was ≥ 9 nM.
